Reference: patent US7297700B2, “Bicycloheteroaryl compounds as P2X7 modulators and uses thereof” (Renovis, Inc., priority 2005, dated 2007)

The compounds below were run on IL-1β release from THP-1 cells (assay: IL-1β Release Assay (Alternate Method), THP-1 cells). Conditions: Homo sapiens; at 0.3 μM; THP-1 cells; read-out: IL-1β % inhibition.
Format: cell-based, human
Method in brief: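 THP-1 cells differentiated 16 h with 100 ng/mL LPS plus 100 ng/mL IFN-γ, reprimed 2 h with 100 ng/mL LPS, pretreated 30 min with compound, then challenged 45 min with 250 uM BzATP (final). Supernatant IL-1β quantified by ELISA; percent inhibition from background-adjusted levels versus untreated cells.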

| SMILES | inhibition at 0.3 µM [%] |
| --- | --- |
| COCC(O)CN1CCc2c(ncnc2NC(=O)CC23CC4CC(CC(C4)C2)C3)C1 (stereo not shown) [Compound 13, 2-adamantan-1-yl-N-[7-(2-hydroxy-3-methoxy-propyl)-5,6,7,8-tetrahydro-pyrido[3,4-d]pyrimidin-4-yl]-acetamide] | 0 to 25 |
| Cc1ncc2c(c1C(=O)NCC13CC4CC(CC(C4)C1)C3)CCN(Cc1ccccc1)C2 [Compound 368, 7-Benzyl-3-methyl-5,6,7,8-tetrahydro-[2,7]naphthyridine-4carboxylic acid (adamantan-1-ylmethyl)-amide] | 0 to 25 |
| CC12CC3CC(C)(C1)CC(CC(=O)Nc1ncnc4c1CCN(Cc1ccccc1)C4)(C3)C2 [Compound 341, N-(7-Benzyl-5,6,7,8-tetrahydro-pyrido[3,4-d]pyrimidin-4-yl)-2-(3,5-dimethyl-adamantan-1-yl)-acetamide] | 25 to 50 |

Same assay, conditions: at 0.3 μM; THP-1 cells

| SMILES | IL-1β % inhibition |
| --- | --- |
| O=C(CC1CCCCCC1)Nc1ncnc2c1CCN(Cc1ccc(F)cc1)C2 [Compound 130] | + (compound exhibited 0-25% inhibition at 0.3 μM) |
| O=C(CC12CC3CC(CC(C3)C1)C2)Nc1ncnc2c1CCN(Cc1ccccc1OC(F)F)C2 [Compound 77] | + (compound exhibited 0-25% inhibition at 0.3 μM) |
| O=C(CC12CC3CC(CC(C3)C1)C2)Nc1ncnc2c1CCN(C(=O)C1CCCN1C(=O)C(F)(F)F)C2 (stereo not shown) [Compound 306] | + (compound exhibited 0-25% inhibition at 0.3 μM) |
| O=C(CC12CC3CC(CC(C3)C1)C2)Nc1ncnc2c1CCN(Cc1ccc(C(F)(F)F)cc1C(F)(F)F)C2 [Compound 327] | + (compound exhibited 0-25% inhibition at 0.3 μM) |
| CC(C)(C(=O)Nc1ncnc2c1CCN(S(=O)(=O)c1ccc(F)c(F)c1)C2)C12CC3CC(CC(C3)C1)C2 [Compound 355] | + (compound exhibited 0-25% inhibition at 0.3 μM) |
| CN1CCc2c(ncnc2NC(=O)CC2CCCCC2)C1 [Compound 26] | +++ (compound exhibited 50-75% inhibition at 0.3 μM) |
| CC(=O)N1CCc2c(ncnc2NC(=O)CC23CC4CC(CC(C4)C2)C3)C1 [Compound 219] | + (compound exhibited 0-25% inhibition at 0.3 μM) |
| O=C(NCCc1ccccc1Cl)c1ncnc2c1CCN(Cc1ccccc1)C2 [Compound 1] | + (compound exhibited 0-25% inhibition at 0.3 μM) |
| O=C(NCC1CCCCC1)c1ncnc2c1CCN(Cc1cccc(Cl)c1)C2 [Compound 53] | + (compound exhibited 0-25% inhibition at 0.3 μM) |
| O=C(CC12CC3CC(CC(C3)C1)C2)Nc1ncnc2c1CCN(C(=O)c1cccnc1)C2 [Compound 237] | + (compound exhibited 0-25% inhibition at 0.3 μM) |
| O=C(CC12CC3CC(CC(C3)C1)C2)Nc1ncnc2c1CCN(C(=O)c1ccc3ccccc3c1)C2 [Compound 290] | ++++ (compound exhibited 75% or greater inhibition at 0.3 μM) |
| O=C(CC12CC3CC(CC(C3)C1)C2)Nc1ncnc2c1CCN(C(=O)c1cccnc1Oc1ccccc1)C2 [Compound 274] | + (compound exhibited 0-25% inhibition at 0.3 μM) |
| O=C(CC12CC3CC(CC(C3)C1)C2)Nc1ncnc2c1CCN(Cc1ccncc1)C2 [Compound 43] | + (compound exhibited 0-25% inhibition at 0.3 μM) |
| O=C(CC12CC3CC(CC(C3)C1)C2)Nc1ncnc2c1CCN(Cc1ccc3ccccc3n1)C2 [Compound 73] | + (compound exhibited 0-25% inhibition at 0.3 μM) |
| O=C(CC12CC3CC(CC(C3)C1)C2)Nc1ncnc2c1CCN(CC1CCCC1)C2 [Compound 121] | + (compound exhibited 0-25% inhibition at 0.3 μM) |
| Cc1nc(S(=O)(=O)N2CCc3c(ncnc3NC(=O)CC34CC5CC(CC(C5)C3)C4)C2)cn1C [Compound 164] | + (compound exhibited 0-25% inhibition at 0.3 μM) |
| O=C(CC12CC3CC(CC(C3)C1)C2)Nc1ncnc2c1CCN(C(=O)c1ccc(Cl)nc1)C2 [Compound 281] | + (compound exhibited 0-25% inhibition at 0.3 μM) |
| O=C(CC12CC3CC(CC(C3)C1)C2)Nc1ncnc2c1CCN(Cc1ccc(Cl)cc1F)C2 [Compound 328] | +++ (compound exhibited 50-75% inhibition at 0.3 μM) |
| O=C(CC12CC3CC(CC(C3)C1)C2)Nc1ncnc2c1CCN(C(=O)CC1CCCC1)C2 [Compound 263] | ++++ (compound exhibited 75% or greater inhibition at 0.3 μM) |

| SMILES | IL-1β % inhibition |
| --- | --- |
| CC(C)(C(=O)Nc1ncnc2c1CCN(S(=O)(=O)c1cccc(Cl)c1)C2)C12CC3CC(CC(C3)C1)C2 [Compound 354] | + (compound exhibited 0-25% inhibition at 0.3 μM) |
| Cc1cccc(CN2CCc3c(ncnc3NC(=O)CC34CC5CC(CC(C5)C3)C4)C2)n1 [Compound 118] | + (compound exhibited 0-25% inhibition at 0.3 μM) |
| Cc1cccc(C(=O)N2CCc3c(ncnc3NC(=O)C(C)(C)C34CC5CC(CC(C5)C3)C4)C2)c1 [Compound 358] | + (compound exhibited 0-25% inhibition at 0.3 μM) |
| COc1cccc(CC(=O)N2CCc3c(ncnc3NC(=O)CC34CC5CC(CC(C5)C3)C4)C2)c1 [Compound 261] | + (compound exhibited 0-25% inhibition at 0.3 μM) |
| COc1cc(OCc2ccccc2)ccc1CN1CCc2c(ncnc2NC(=O)CC23CC4CC(CC(C4)C2)C3)C1 [Compound 330] | +++ (compound exhibited 50-75% inhibition at 0.3 μM) |
| O=C(CC12CC3CC(CC(C3)C1)C2)Nc1ncnc2c1CCN(CCc1ccccc1)C2 [Compound 14] | + (compound exhibited 0-25% inhibition at 0.3 μM) |
| O=C(CC12CC3CC(CC(C3)C1)C2)Nc1ncnc2c1CCN(S(=O)(=O)c1ccc(Oc3ccccn3)cc1)C2 [Compound 172] | +++ (compound exhibited 50-75% inhibition at 0.3 μM) |
| CCc1ccc(C(=O)N2CCc3c(ncnc3NC(=O)CC34CC5CC(CC(C5)C3)C4)C2)cc1 [Compound 229] | +++ (compound exhibited 50-75% inhibition at 0.3 μM) |
| COc1ccc(CN2CCc3c(ncnc3NC(=O)CC34CC5CC(CC(C5)C3)C4)C2)cc1F [Compound 119] | ++ (compound exhibited 25-50% inhibition at 0.3 μM) |
| O=C(CC12CC3CC(CC(C3)C1)C2)Nc1ncnc2c1CCN(S(=O)(=O)c1cc(Cl)cc(Cl)c1)C2 [Compound 208] | +++ (compound exhibited 50-75% inhibition at 0.3 μM) |
| Cc1ccccc1CN1CCc2c(ncnc2NC(=O)CC23CC4CC(C)(CC(C)(C4)C2)C3)C1 [Compound 372] | +++ (compound exhibited 50-75% inhibition at 0.3 μM) |
| CC12CC3(C)CC(C)(C1)CC(C(=O)Nc1ncnc4c1CCN(Cc1ccccc1)C4)(C2)C3 [Compound 346] | + (compound exhibited 0-25% inhibition at 0.3 μM) |
| O=C(CC12CC3CC(CC(C3)C1)C2)Nc1ncnc2c1CCN(Cc1ccc(-n3ccnc3)cc1)C2 [Compound 98] | ++ (compound exhibited 25-50% inhibition at 0.3 μM) |
| O=C(CC12CC3CC(CC(C3)C1)C2)Nc1ncnc2c1CCN(C(=O)c1cccc(F)c1)C2 [Compound 227] | + (compound exhibited 0-25% inhibition at 0.3 μM) |
| CC(C)(C(=O)Nc1ncnc2c1CCN(Cc1ccccc1)C2)C12CC3CC(CC(C3)C1)C2 [Compound 339] | + (compound exhibited 0-25% inhibition at 0.3 μM) |
| Cc1ccccc1C(=O)N1CCc2c(ncnc2NC(=O)CC23CC4CC(CC(C4)C2)C3)C1 [Compound 278] | +++ (compound exhibited 50-75% inhibition at 0.3 μM) |
| O=C(NCC12CC3CC(CC(C3)C1)C2)c1ncnc2c1CCN(Cc1ccccc1F)C2 [Compound 139] | ++ (compound exhibited 25-50% inhibition at 0.3 μM) |
| CC(C)(C(=O)Nc1ncnc2c1CCN(C(=O)c1cccc(C(F)(F)F)c1)C2)C12CC3CC(CC(C3)C1)C2 [Compound 359] | + (compound exhibited 0-25% inhibition at 0.3 μM) |

Same assay, conditions: at 0.3 μM; THP-1 cells, BzATP-stimulated

| SMILES | IL-1β % inhibition |
| --- | --- |
| COc1ccc(CN2CCc3c(ncnc3NC(=O)C34CC5CC(CC(C5)C3)C4)C2)cc1OC [Compound 566] | + (compound exhibited 0-25% inhibition at 0.3 μM) |
| O=C(c1ccccc1C(F)(F)F)N1CCc2c(ncnc2NC(=O)C23CC4CC(CC(C4)C2)C3)C1 [Compound 442] | ++ (compound exhibited 25-50% inhibition at 0.3 μM) |
| Cc1ccc(F)cc1S(=O)(=O)N1CCc2c(ncnc2NC(=O)C23CC4CC(CC(C4)C2)C3)C1 [Compound 546] | + (compound exhibited 0-25% inhibition at 0.3 μM) |
| O=C(Nc1ncnc2c1CCN(S(=O)(=O)c1cccc(C(F)(F)F)c1)C2)C12CC3CC(CC(C3)C1)C2 [Compound 492] | +++ (compound exhibited 50-75% inhibition at 0.3 μM) |
| O=C(Nc1ncnc2c1CCN(S(=O)(=O)c1ccc(F)cc1)C2)C12CC3CC(CC(C3)C1)C2 [Compound 490] | +++ (compound exhibited 50-75% inhibition at 0.3 μM) |
| O=C(Nc1ncnc2c1CCN(S(=O)(=O)Cc1ccc(C(F)(F)F)cc1)C2)C12CC3CC(CC(C3)C1)C2 [Compound 516] | ++ (compound exhibited 25-50% inhibition at 0.3 μM) |
| O=C(Nc1ncnc2c1CCN(S(=O)(=O)Cc1cccc(C(F)(F)F)c1)C2)C12CC3CC(CC(C3)C1)C2 [Compound 520] | ++ (compound exhibited 25-50% inhibition at 0.3 μM) |
| Cc1ccc(S(=O)(=O)N2CCc3c(ncnc3NC(=O)C34CC5CC(CC(C5)C3)C4)C2)cc1 [Compound 482] | ++ (compound exhibited 25-50% inhibition at 0.3 μM) |
| COc1cccc(C(=O)N2CCc3c(ncnc3NC(=O)C34CC5CC(CC(C5)C3)C4)C2)c1 [Compound 422] | ++ (compound exhibited 25-50% inhibition at 0.3 μM) |
| CCOc1cccc(CN2CCc3c(ncnc3NC(=O)C34CC5CC(CC(C5)C3)C4)C2)c1 [Compound 625] | + (compound exhibited 0-25% inhibition at 0.3 μM) |
| COc1ccc(CN2CCc3c(ncnc3NC(=O)C34CC5CC(CC(C5)C3)C4)C2)c(OC)c1 [Compound 608] | + (compound exhibited 0-25% inhibition at 0.3 μM) |
| O=C(Cc1ccccc1Br)N1CCc2c(ncnc2NC(=O)C23CC4CC(CC(C4)C2)C3)C1 [Compound 470] | + (compound exhibited 0-25% inhibition at 0.3 μM) |
